According to patent publication US8247211B2, “Glycopeptide antibiotics” (American Cyanamid Company, priority 2001, dated 2012):
≈ marks a conversion by molar mass, not a printed value.

Key:
Escherichia coli [1] = experiment: In vitro antibacterial evaluation: minimum inhibitory concentration (MIC), broth dilution method; assay type: cell-based
Enterococcus sp. = experiment: as above; assay type: cell-based
Outline: (§1)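 Inoculum: 5×10^5 CFU/mL. Range: 64-0.06 μg/mL. Medium: Muller-Hinton II […]; NCCLS M7-A2 broth dilution. Endpoint: lowest concentration inhibiting growth. Strains include methicillin-, penicillin- and/or vancomycin-resistant clinical isolates.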

Escherichia coli [2] = experiment: as above; assay type: cell-based; remark: listed apart in the source
Outline: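 Following NCCLS approved standard M7-A2, compounds are serially diluted from 64 to 0.06 μg/mL in Muller-Hinton II […] and inoculated at 5×10^5 CFU/mL; the MIC is the minimum concentration at which growth is inhibited.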

Staphylococcus sp. = experiment: as above; assay type: cell-based; settings: 18 hours at 35° C.
Outline: as §1

[3] = tested on: Staphylococcus aureus-SMITH (GC 4543); experiment: Acute lethal infection in mice (ED50); assay type: in vivo; settings: female CD-1 mice, intraperitoneal challenge, intravenous dose 30 min. after infection, 7 day survival ratios
Outline: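 Female CD-1 mice challenged intraperitoneally with a bacterial dose lethal to untreated controls within 24-48 h. Compound given intravenously in saline or 5% dextrose 30 min post-infection, five mice per dose; ED50 from 7-day survival pooled over 3 tests.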

[4] = Anatomic pathology (heart and kidney histopathology) in mice; assay type: in vivo, CD-1 mice; settings: 20 mg/kg intravenously daily for 9 days, microscopic histopathology on day 10
Outline: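 Juvenile CD-1 mice (20 days old; 5 vehicle, 5 treated) received glycopeptide antibiotic 20 mg/kg i.v. daily for 9 days. Necropsied tissues formalin-fixed, paraffin-embedded, H&E stained and examined microscopically; findings graded slight to severe versus controls.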

Streptococcus sp. = experiment: In vitro antibacterial evaluation: minimum inhibitory concentration (MIC), broth dilution method; assay type: cell-based; settings: 18 hours at 35° C.
Outline: as §1

[5] = Enterococcus faecalis (ATCC 29212)
[6] = Enterococcus faecalis (GC 4553)
[7] = Enterococcus faecalis (GC 4554)
[8] = Enterococcus faecalis (GC 6189)
[9] = Staphylococcus aureus (ATCC 29213)
[10] = Staphylococcus aureus (GC 1131)
[11] = Staphylococcus aureus (GC 3051)
[12] = Staphylococcus aureus (GC 3053)
[13] = Staphylococcus aureus (GC 4541)
[14] = Staphylococcus aureus (GC 4542)
[15] = Staphylococcus aureus (GC 4544)
[16] = Staphylococcus aureus (GC 4545)

Molecule: CC(C)CC(=O)OC1C(OC2C(CO)OC(Oc3ccc(CC4NC(=O)C(C(C)c5ccccc5)NC(=O)CNC(=O)C(CO)NC(=O)C(CC5CNC(=N)N5C5OC(CO)C(O)C(O)C5O)NC(=O)C(CC5CNC(=N)N5)NC4=O)cc3)C(O)C2O)OC(CO)C(O)C1O (stereo not shown) [Example 277b]
- MIC Escherichia coli (ATCC 25922) (Escherichia coli [1]): >64 µg/mL
- MIC Enterococcus avium (GC 4558) (Enterococcus sp.; Enterococcus avium (GC 4558)): >64 µg/mL
- MIC Enterococcus faecalis (ATCC 29212) (Enterococcus sp.; [5]): >64 µg/mL
- MIC Enterococcus faecalis (GC 4553) (Enterococcus sp.; [6]): >64 µg/mL
- MIC Enterococcus faecalis (GC 4554) (Enterococcus sp.; [7]): >64 µg/mL
- MIC Enterococcus faecalis (GC 6189) (Enterococcus sp.; [8]): >64 µg/mL
- MIC Enterococcus faecium (GC 2243) (Enterococcus sp.; Enterococcus faecium (GC 2243)): >64 µg/mL
- MIC Enterococcus faecium (GC 4556) (Enterococcus sp.; Enterococcus faecium (GC 4556)): >64 µg/mL
- MIC Enterococcus faecium (GC 4557) (Enterococcus sp.; Enterococcus faecium (GC 4557)): >64 µg/mL
- MIC Escherichia coli (GC 4559) (Escherichia coli [2]): >64 µg/mL
- MIC Escherichia coli (GC 4560) (Escherichia coli [2]): 32 µg/mL (≈ 23.7 µM)
- MIC Coagulase Negative Staphylococcus (GC 4547) (Staphylococcus sp.): >64 µg/mL
- MIC Coagulase Negative Staphylococcus (GC 4547) (Staphylococcus sp.; broth dilution): >64 µg/mL
- MIC Coagulase Negative Staphylococcus (GC 4548) (Staphylococcus sp.): >64 µg/mL
- MIC Coagulase Negative Staphylococcus (GC 4548) (Staphylococcus sp.; broth dilution): >64 µg/mL
- MIC Coagulase Negative Staphylococcus (GC 4549) (Staphylococcus sp.): >64 µg/mL
- MIC Coagulase Negative Staphylococcus (GC 4549) (Staphylococcus sp.; broth dilution): >64 µg/mL
- MIC Coagulase Negative Staphylococcus (GC 4551) (Staphylococcus sp.): >64 µg/mL
- MIC Coagulase Negative Staphylococcus (GC 4551) (Staphylococcus sp.; broth dilution): >64 µg/mL
- MIC Coagulase Negative Staphylococcus (GC 6257) (Staphylococcus sp.): >64 µg/mL
- MIC Coagulase Negative Staphylococcus (GC 6257) (Staphylococcus sp.; broth dilution): >64 µg/mL
- MIC Staphylococcus aureus (ATCC 29213) (Staphylococcus sp.; [9]): >64 µg/mL
- MIC Staphylococcus aureus (ATCC 29213) (Staphylococcus sp.; Staphylococcus aureus (ATCC 29213), broth dilution): >64 µg/mL
- MIC Staphylococcus aureus (GC 1131) (Staphylococcus sp.; [10]): >64 µg/mL
- MIC Staphylococcus aureus (GC 1131) (Staphylococcus sp.; Staphylococcus aureus (GC 1131), broth dilution): >64 µg/mL
- MIC Staphylococcus aureus (GC 3051) (Staphylococcus sp.; [11]): >64 µg/mL
- MIC Staphylococcus aureus (GC 3051) (Staphylococcus sp.; Staphylococcus aureus (GC 3051), broth dilution): >64 µg/mL
- MIC Staphylococcus aureus (GC 3053) (Staphylococcus sp.; [12]): >64 µg/mL
- MIC Staphylococcus aureus (GC 3053) (Staphylococcus sp.; Staphylococcus aureus (GC 3053), broth dilution): >64 µg/mL
- MIC Staphylococcus aureus (GC 4541) (Staphylococcus sp.; [13]): >64 µg/mL
- MIC Staphylococcus aureus (GC 4541) (Staphylococcus sp.; Staphylococcus aureus (GC 4541), broth dilution): >64 µg/mL
- MIC Staphylococcus aureus (GC 4542) (Staphylococcus sp.; [14]): >64 µg/mL
- MIC Staphylococcus aureus (GC 4542) (Staphylococcus sp.; Staphylococcus aureus (GC 4542), broth dilution): >64 µg/mL
- MIC Staphylococcus aureus (GC 4544) (Staphylococcus sp.; [15]): >64 µg/mL
- MIC Staphylococcus aureus (GC 4544) (Staphylococcus sp.; Staphylococcus aureus (GC 4544), broth dilution): >64 µg/mL
- MIC Staphylococcus aureus (GC 4545) (Staphylococcus sp.; [16]): >64 µg/mL
- MIC Staphylococcus aureus (GC 4545) (Staphylococcus sp.; Staphylococcus aureus (GC 4545), broth dilution): >64 µg/mL
- MIC Staphylococcus aureus-SMITH (GC 4543) (Staphylococcus sp.): >64 µg/mL
- MIC Staphylococcus aureus-SMITH (GC 4543) (Staphylococcus sp.; broth dilution): >64 µg/mL
- MIC Staphylococcus haemolyticus (GC 4546) (Staphylococcus sp.): >64 µg/mL
- MIC Staphylococcus haemolyticus (GC 4546) (Staphylococcus sp.; broth dilution): >64 µg/mL
- median effective dose (ED50), Staphylococcus aureus-SMITH (GC 4543) [3]: >8
- Anatomical Pathology (Day 10), Heart [4]: 0
- Anatomical Pathology (Day 10), Kidney [4]: +

Molecule: β-O-[(N-Methyl-2-methylpropylamino)carbonyl]-cyclo[glycyl-β-methylphenylalanyl-O-(4-O-hexopyranosylhexopyranosyl)tyrosyl-3-(2-iminoimidazolidin-4-yl)seryl-3-(3-hexopyranosyl-2-iminoimidazolidin-4-yl)serylseryl] [Example 255a]
- MIC Escherichia coli (ATCC 25922) (Escherichia coli [1]): >0.5 µg/mL
- MIC Enterococcus avium (GC 4558) (Enterococcus sp.; Enterococcus avium (GC 4558)): >0.5 µg/mL
- MIC Enterococcus faecalis (ATCC 29212) (Enterococcus sp.; [5]): >0.5 µg/mL
- MIC Enterococcus faecalis (GC 2242) (Enterococcus sp.; Enterococcus faecalis (GC 2242), 18 hours at 35° C.): >0.5 µg/mL
- MIC Enterococcus faecalis (GC 2691) (Enterococcus sp.; Enterococcus faecalis (GC 2691), 18 hours at 35° C.): >0.5 µg/mL
- MIC Enterococcus faecalis (GC 3059) (Enterococcus sp.; Enterococcus faecalis (GC 3059), 18 hours at 35° C.): >0.5 µg/mL
- MIC Enterococcus faecalis (GC 4552) (Enterococcus sp.; Enterococcus faecalis (GC 4552), 18 hours at 35° C.): >0.5 µg/mL
- MIC Enterococcus faecalis (GC 4553) (Enterococcus sp.; [6]): >0.5 µg/mL
- MIC Enterococcus faecalis (GC 4554) (Enterococcus sp.; [7]): >0.5 µg/mL
- MIC Enterococcus faecalis (GC 6189) (Enterococcus sp.; [8]): >0.5 µg/mL
- MIC Enterococcus faecium (GC 2243) (Enterococcus sp.; Enterococcus faecium (GC 2243)): >64 µg/mL
- MIC Enterococcus faecium (GC 4556) (Enterococcus sp.; Enterococcus faecium (GC 4556)): >64 µg/mL
- MIC Enterococcus faecium (GC 4557) (Enterococcus sp.; Enterococcus faecium (GC 4557)): 32 µg/mL
- MIC Enterococcus faecalis (ATCC 29212) (Enterococcus sp.; broth dilution, 18 hours at 35° C., strain ATCC 29212): >0.5 µg/mL
- MIC Enterococcus faecalis (GC 2242) (Enterococcus sp.; broth dilution, 18 hours at 35° C., strain GC 2242): >0.5 µg/mL
- MIC Enterococcus faecium (GC 2243) (Enterococcus sp.; broth dilution, 18 hours at 35° C., strain GC 2243): >64 µg/mL
- MIC Enterococcus faecalis (GC 2691) (Enterococcus sp.; broth dilution, 18 hours at 35° C., strain GC 2691): >0.5 µg/mL
- MIC Enterococcus faecalis (GC 3059) (Enterococcus sp.; broth dilution, 18 hours at 35° C., strain GC 3059): >0.5 µg/mL
- MIC Enterococcus faecalis (GC 4552) (Enterococcus sp.; broth dilution, 18 hours at 35° C., strain GC 4552): >0.5 µg/mL
- MIC Enterococcus faecalis (GC 4553) (Enterococcus sp.; broth dilution, 18 hours at 35° C., strain GC 4553): >0.5 µg/mL
- MIC Enterococcus faecalis (GC 4554) (Enterococcus sp.; broth dilution, 18 hours at 35° C., strain GC 4554): >0.5 µg/mL
- MIC Enterococcus faecium (GC 4556) (Enterococcus sp.; broth dilution, 18 hours at 35° C., strain GC 4556): >64 µg/mL
- MIC Enterococcus faecium (GC 4557) (Enterococcus sp.; broth dilution, 18 hours at 35° C., strain GC 4557): 32 µg/mL
- MIC Enterococcus avium (GC 4558) (Enterococcus sp.; broth dilution, 18 hours at 35° C., strain GC 4558): >0.5 µg/mL
- MIC Enterococcus faecalis (GC 6189) (Enterococcus sp.; broth dilution, 18 hours at 35° C., strain GC 6189): >0.5 µg/mL
- MIC Escherichia coli (GC 4559) (Escherichia coli [2]): >0.5 µg/mL
- MIC Escherichia coli (GC 4560) (Escherichia coli [2]): 0.5 µg/mL
- MIC Streptococcus agalactiae (GC 4564) (Streptococcus sp.; Streptococcus agalactiae (GC 4564)): 64 µg/mL
- MIC Streptococcus pneumoniae (GC 4565) (Streptococcus sp.; Streptococcus pneumoniae (GC 4565)): 32 µg/mL
- MIC Streptococcus pyogenes (GC 4563) (Streptococcus sp.; Streptococcus pyogenes (GC 4563)): 32 µg/mL
- MIC Streptococcus pyogenes (GC 4563) (Streptococcus sp.; broth dilution, strain GC 4563): 32 µg/mL
- MIC Streptococcus agalactiae (GC 4564) (Streptococcus sp.; broth dilution, strain GC 4564): 64 µg/mL
- MIC Streptococcus pneumoniae (GC 4565) (Streptococcus sp.; broth dilution, strain GC 4565): 32 µg/mL
- MIC Coagulase Negative Staphylococcus (GC 4547) (Staphylococcus sp.): 64 µg/mL
- MIC Coagulase Negative Staphylococcus (GC 4548) (Staphylococcus sp.): >64 µg/mL
- MIC Coagulase Negative Staphylococcus (GC 4549) (Staphylococcus sp.): 64 µg/mL
- MIC Coagulase Negative Staphylococcus (GC 4551) (Staphylococcus sp.): >64 µg/mL
- MIC Coagulase Negative Staphylococcus (GC 6257) (Staphylococcus sp.): 64 µg/mL
- MIC Staphylococcus aureus (ATCC 29213) (Staphylococcus sp.; [9]): >0.5 µg/mL
- MIC Staphylococcus aureus (GC 1131) (Staphylococcus sp.; [10]): >0.5 µg/mL
- MIC Staphylococcus aureus (GC 3051) (Staphylococcus sp.; [11]): 0.5 µg/mL
- MIC Staphylococcus aureus (GC 3053) (Staphylococcus sp.; [12]): 0.5 µg/mL
- MIC Staphylococcus aureus (GC 4541) (Staphylococcus sp.; [13]): >0.5 µg/mL
- MIC Staphylococcus aureus (GC 4542) (Staphylococcus sp.; [14]): >0.5 µg/mL
- MIC Staphylococcus aureus (GC 4544) (Staphylococcus sp.; [15]): >0.5 µg/mL
- MIC Staphylococcus aureus (GC 4545) (Staphylococcus sp.; [16]): >0.5 µg/mL
- MIC Staphylococcus aureus-SMITH (GC 4543) (Staphylococcus sp.): >0.5 µg/mL
- MIC Staphylococcus haemolyticus (GC 4546) (Staphylococcus sp.): 64 µg/mL
- MIC Staphylococcus aureus (ATCC 29213) (Staphylococcus sp.; broth dilution, strain ATCC 29213): >0.5 µg/mL
- MIC Staphylococcus aureus (GC 1131) (Staphylococcus sp.; broth dilution, strain GC 1131): >0.5 µg/mL
- MIC Staphylococcus aureus (GC 3051) (Staphylococcus sp.; broth dilution, strain GC 3051): 0.5 µg/mL
- MIC Staphylococcus aureus (GC 3053) (Staphylococcus sp.; broth dilution, strain GC 3053): 0.5 µg/mL
- MIC Staphylococcus aureus (GC 4541) (Staphylococcus sp.; broth dilution, strain GC 4541): >0.5 µg/mL
- MIC Staphylococcus aureus (GC 4542) (Staphylococcus sp.; broth dilution, strain GC 4542): >0.5 µg/mL
- MIC Staphylococcus aureus (GC 4544) (Staphylococcus sp.; broth dilution, strain GC 4544): >0.5 µg/mL
- MIC Staphylococcus aureus (GC 4545) (Staphylococcus sp.; broth dilution, strain GC 4545): >0.5 µg/mL
